Laboratory results: US11154569B2, “Ruthenium μ-nitrido complexes and their use as calcium uptake inhibitors” (CORNELL UNIVERSITY, priority 2018, dated 2021)

Experiments:
HEK293 cells [1] = test: MTT cytotoxicity assay; type: cell-based, human
Method: (§1) HEK293 (human embryonic kidney cells were obtained from American Type Culture Collection (ATCC, Washington D.C.) and cultured as adherent monolayers in a humidified 5% CO2 atmosphere at 37° C. in Minimum Essential Media supplemented with 10% fetal bovine serum (FBS) and 100 U/mL penicillin/streptomycin. HeLa cells were cultured in Dulbecco's Modified Eagle's Medium (DMEM) supplemented with 10% FBS and 100 U/mL penicillin/streptomycin. Cells were checked for contamination monthly using the PlasmoTest™ mycoplasma detection kit. Ventricular cardiomyocytes were isolated from neonatal rats (NRVMs) as previously described (H. M. Piper et al., Piper H. M. (eds), Cell Culture Techniques in Heart and Vessel Research, Springer Verlag: Berlin, 1990). The isolated myocytes were cultured in Ham's F-10 supplemented with 5%/o fetal bovine serum (FBS) and penicillin/streptomycin (100 U/ml) at 37° C. in a 95% air/5% CO2 humidified atmosphere for four days
(§2) Cells were seeded at 4000 cells/well in 100 μL/well in a 96-well plate and incubated for 24 hours. The media was removed and replaced with 200 μL of growth media containing varying concentrations of the complex. After 72 hours of incubation, the media was replaced with MEM containing 1 mg/mL of (4,5-dimethylthiazol-2-yl)-2,5-diepheyltetrazolium bromide (MTT). After four hours incubation, the media was removed and the purple formazan crystals were solubilized using 100 μL of a 8/1 DMSO/glycine buffer (pH 10) mixture. The absorbance at 570 nm was measured using a plate reader.
(§3) With the new nitrido-bridged ruthenium compounds C-2 and C-3 prepared, MCU-inhibitory properties of these compounds were evaluated and their activities compared to C-1, the oxo-bridged Ru360 analogue of the conventional art (S. R. Nathan et al., Inorg. Chem. 2017, 56, 3123-3126 and S. R. Nathan et al., J. Vis. Exp. 2017, 56527). The cytotoxicity of the complexes in HEK293 cells was first measured using the colorimetric thiazolyl blue tetrazolium bromide (MTT) assay, as well known in the art. […]

MTT cytotoxicity assay = type: cell-based, human; details: human; HEK293 cells, 72 hours incubation; read-out: IC50 (cytotoxicity, MTT)
Method: as §1, §2, §3

HeLa cells [2] = test: Mitochondrial accumulation of ruthenium in HeLa cells (mitochondrial isolation, GFAAS); details: 50 μM, 24 hours
Method: Approximately 1×10^6 HeLa cells were seeded in 75 cm^2 dishes and allowed to adhere overnight. The following day, the cell culture media was removed, and the cells were washed with 3 mL of PBS before treatment with media containing 50 μM of the complex. After 24 hours, the culture media was removed, and the cell monolayer was washed with 3 mL of PBS before the cells were harvested by trypsinization. The cell suspension was centrifuged, and the resulting pellet was resuspended in 3 ml, of PBS and centrifuged again to remove extracellular ruthenium. This washing step was repeated a total of three times. […] The ruthenium concentration in each sample was determined by GFAAS and was normalized to the protein content of the lysate, which was determined using the Bicinchoninic Acid Protein Assay Kit. […] Results were calculated as the mass ratio of total ruthenium to protein (pg/μg) in each sample±standard deviation of three independent trials. […]
To determine the abilities of the complexes to accumulate in the mitochondria, HeLa cells were treated with C-1, C-2 or C-3 (50 μM) in culture media for 24 hours, and the mitochondria were isolated following modified literature procedures (e.g., A. C. Komor et al., J. Am Chem. Soc. 2012, 134, 19223-19233). Both the mitochondrial and extramitochondrial fractions were analyzed for ruthenium content.

Water solubility = type: physicochemical
HEK293 cells [3] = test: Whole cell uptake of ruthenium (GFAAS) in HEK293 cells; type: cell-based, human; details: 50 μM, 24 hours
Method: HEK293 cells were grown to near confluence in 75 cm^2 dishes. […] The cells were then treated with culture media containing 50 μM of the complex and incubated at 37° C. for 24 hours. The cells were washed with 1 mL of PBS and harvested using 0.05% trypsin. The cells were pelleted by centrifugation, re-suspended in 1 mL of PBS, and pelleted again. The washing and pelleting step was repeated a total of three times, after which the supernatant was removed and the cells were suspended in 500 μL of lysis buffer containing 1% w/v 3-[3-cholamidopropyl)dimethylammonio]-1-propanesulfonate) (CHAPS), 5 mM ethylenediamine tetraacetic acid (EDTA), and 50 mM tris(hydroxymethyl)aminomethane (Tris) and 100 mM NaCl (pH=7.4). The suspension was vortexed for 30 seconds and incubated on ice for 45 minutes. Control cells not treated with the complexes were handled identically to the treated cells to correct for ruthenium present in the cells, and control dishes were incubated with the complex in the absence of cells to correct for non-specific adsorption of ruthenium to the plastic. If needed, samples were stored in −80° C. until analysis. Ruthenium and protein content of the lysates were determined as described above.

HeLa cells [4] = test: Whole cell uptake of ruthenium (GFAAS) in HeLa cells; type: cell-based; details: 50 μM, 24 hours
[5] = tested on: neonatal rat ventricular myocytes (NRVMs); test: Hypoxia/reoxygenation injury in neonatal rat ventricular myocytes (ΔΨm and mCa2+ uptake); type: cell-based; details: 50 μM, 16 hours hypoxia, 8 hours reoxygenation
Method: Freshly isolated NRVMs were subjected to 16 hours of hypoxia (5% O2-5% CO2) followed by 8 hours of reoxygenation (20% O2-5% CO2). To study the protective effect of C-2, HIR was induced in NRVMs pretreated with or without C-2 (50 μM).
An equal number of NRVMs (6×10^6 cells) were washed in Ca^2+ free PBS, pH 7.4, resuspended and permeabilized with 40 μg/ml digitonin in 1.5 mL of intracellular medium (ICM) composed of 120 mM KCl, 10 mM NaCl, 1 mM KH2PO4, 20 mM Hepes-Tris, pH 7.2 and 2 μM thapsigargin to block the SERCA pump. All measurements were performed in the presence of 2 mM succinate. The simultaneous measurement of mitochondrial membrane potential (ΔΨm) and extra-mitochondrial Ca^2+([Ca^2+]) clearance were measured as above by using the JC-1 and Fura2-FF dyes. A series of extra-mitochondrial Ca^2+ bolus (10 μM) was added and mitochondrial uncoupler, CCCP (2 μM), were added at the indicated time points. All the experiments were performed at 37° C. with constant stirring.
Given the Ca^2+ uptake inhibiting properties and low toxicity of C-2, C-2 was studied for its possible ability to protect cardiomyocytes from the mCa^2+ overload that occurs during hypoxia/reoxygenation (I-H/R) injury and prevent mPTP opening and mitochondrial swelling. Freshly isolated neonatal rat ventricular myocytes (NRVMs) treated with C-2 (50 μM) were subjected to 16 hours of hypoxia (1% O2-5% CO2), followed by 8 hours of reoxygenation (21% O2-5% CO2). Untreated NRVMs served as controls. After H/R injury, NRVMs were permeabilized and loaded with the JC-1 and Fura-FF to simultaneously measure ΔΨm and mCa^2+ uptake.

Compound	toxicity to human cells (HEK293 cells [1])	CC50 at 72 h (MTT cytotoxicity assay) [µM]	concentration in the mitochondria compared to C-1 and C-3 (HeLa cells [2])	solubility (Water solubility) [µg/mL]	cellular uptake relative to C-1 (HEK293 cells [3]) [times]	cellular uptake relative to C-3 (HEK293 cells [3])	cellular uptake relative to C-1 and C-3 (HeLa cells [4])	mCa2+ uptake after H/R injury [5]	ΔΨm after H/R injury [5]	IC50 (HEK293 cells [1]) [µM]
N.N.N.N.N.N.N.N.[Cl-].[Cl-].[N-3].[Ru+4].[Ru+4] [C-2, [Ru2(μ-N)(NH3)8Cl2]Cl3]	low toxicity to human cells	195 ± 8	greater than three-fold higher concentrations	1000	10	over twice as effectively as C-3	twice as effectively as C-1 and C-3	complete ablation of mCa^2+ uptake	no loss of ΔΨm	–
N.N.N.N.N.N.N.N.O=C[O-].O=C[O-].[O-2].[Ru+3].[Ru+4] [Ru360, reference compound]	–	–	–	–	–	–	–	–	did not prevent H/R-mediated ΔΨm dissipation	–
[Ru2(μ-N)(en)4Cl2]Cl3 [C-3]	–	–	–	–	–	–	–	–	–	226 ± 19
